{
  "source": "patent US20100095396A1",
  "about": "“METHOD FOR INCREASING THE DRY BIOMASS OF PLANTS” (priority 2006, published 2010)",
  "key": {"Corn": {"test_system": "Corn", "assay": "Increase of the dry biomass of corn plants after seed treatment", "type": "in vivo", "settings": "harvested 37 days after emergence, dried at 110° C., free disease conditions", "description": "(§1) Treatment with fipronil or fipronil+alpha-cypermethrin under free disease conditions\n(§2) Corn was cultivated under customary conditions at Campinas (Brazil) in 2005/2006. A part of the seeds of the test plants had beforehand been treated with fipronil. Another part of the seeds of the plants had beforehand been treated with a mixture of fipronil and alpha-cypermethrin. 37 days after the emergence of the plants, the plants and their roots were harvested. The leaves and the roots were completely dried in an oven at 110° C. and then weighed."}, "Soybean": {"test_system": "Soybean", "assay": "Increase of the dry biomass of soybean plants after seed treatment", "type": "in vivo", "settings": "harvested 35 days after emergence, dried at 110° C., free disease conditions", "description": "as §1\nas §2, with “Soybean” for “Corn”, “35” for “37”"}},
  "data": [
    {"smiles": "N#Cc1nn(-c2c(Cl)cc(C(F)(F)F)cc2Cl)c(N)c1[S+]([O-])C(F)(F)F", "note": "(stereo not drawn) [Fipronil, 5-amino-1-(2,6-dichloro-α,α,α-trifluoro-p-tolyl)-4-trifluoromethylsulfinylpyrazole-3-carbonitrile]", "values": [
      {"measurement": "Dry weight leaves", "setting": "Corn", "result": 23.38},
      {"measurement": "Dry weight roots", "setting": "Corn", "result": 41.27},
      {"measurement": "Dry weight leaves", "setting": "Soybean", "result": 13.15},
      {"measurement": "Dry weight roots", "setting": "Soybean", "result": 15.6}
    ]}
  ]
}
